These results are taken from patent US12415781B2, “Compounds with biguanidyl radical and uses thereof” (INSTITUT CURIE, priority 2018, dated 2025).

The test system of data set [1] is triple negative human breast cancer cells and circulating tumor cells (CTC) from patients with colorectal cancer. In words: Cell viability (CellTiter-Blue), dose response of cancer cells, FIG. 1B. The settings on record: 72 h, cell line not named. The class given is cell-based. On the procedure: (§1) FIG. 1. […] (FIG. 1B) Dose response viability curves of cancer cells treated as indicated for 72 h. […] (FIG. 1D) Dose response viability curves of HMLER cells in epithelial and mesenchymal states treated as indicated for 72 h. Data points and error bars, mean values and s.d. of three independent biological replicates.
(§2) Cell culture. Dulbecco's Phosphate-Buffered Saline (14190-094, 500 mL, Gibco), Dulbecco's Modified Eagle Medium (DMEM)/F12 (31331-028, 500 mL, Gibco), DMEM GlutaMAX™ (61965059, Thermo Fisher Scientific), Fetal Bovine Serum (FBS, 10270-106, Gibco), Hydrocortisone (H0888, Sigma Aldrich), Insulin (I0516 or I9278, Sigma Aldrich), PEN-STREP (DE17-602E, BioWhittaker, Lonza), Puromycin dihydrochloride (A11138-02, Life Technologies). MCF-7 (ATCC®, HTB-22™), MDA-MB-231 (ATCC®, HTB-26™), MDA-MB-468 (ATCC®, HTB-132™) and circulating tumor cells were grown in DMEM supplemented with 10% FBS and 1% penicillin (100 U/mL), streptomycin (100 μg/mL) and incubated at 37° C. with 5% CO2. To induce EMT, cells were treated with epidermal growth factor EGF (100 ng/ml) (Miltenyi Biotec) for 72 h. The human mammary epithelial cell line infected with a retrovirus carrying hTERT, SV40 and the oncogenic allele HrasV12, named HMLER cells were a generous gift from A. Puisieux. HMLER cells were cultured in DMEM/F12 supplemented with 10% FBS, 10 μg/mL insulin, 0.5 μg/mL hydrocortisone, 10 ng/ml hEGF, and 0.5 μg/mL puromycin. A mycoplasma test was performed using PCR mycoplasma detection kit (G238, Applied Biological Materials).
(§3) Cell viability. Cell viability was carried out by plating 1000 cells/well in 96-well plates using CellTiter-Blue® viability assay according to the manufacturer's protocol. Cells were treated as indicated for 72 h. CellTiter-Blue® reagent (G8081, Promega) was added after 72 h treatment and cells were incubated for 1-2 h before recording fluorescence intensities (ex. 560/20 nm; em. 590/10 nm) using a Perkin Elmer Wallac 1420 Victor2 Microplate Reader.
(The colour change of resazurin is a common sign of viable cells or microbes.)

Data set [2] has as its system MDA-MB-468 triple negative breast cancer cells. In words: Cell viability (CellTiter-Blue), epithelial and mesenchymal (EGF-induced) states, FIG. 1C. The class given is cell-based, human. The settings on record: MDA-MB-468 epithelial/mesenchymal (EGF) states, condition not named. On the procedure:
as §1, §2, §3

Data set [3] concerns MDA-MB-468 cells. In words: Mitochondrial copper(II) levels, turn-off fluorescent probe (microscopy, flow cytometry). The class given is cell-based, human. The note with it: 48 h, reduction in fluorescence, metformin 12 mM, metforminyn 2 mM unless stated otherwise. As to the method: FIG. 2. […] Scale bar, 10 μm. […] Scale bar, 10 μm.
(§4) Flow cytometry. Metal-specific probes were synthesized as previously described.
Copper and iron levels. Cells were incubated with the relevant probes as described in Reagents section. Cells were then analyzed either by fluorescence microscopy or flow cytometry as described in Cell Imaging and Flow Cytometry sections.

For data set [4], the system named is MDA-MB-468 cells. As to the kind of experiment: Mitochondrial ROS levels (MitoSOX Red, flow cytometry). Format: cell-based, human. As to the method: ROS levels. Mitochondrial ROS was measured using MitoSOX™ Red Mitochondrial Superoxide Indicator (M36008, Thermo Fisher Scientific) according to the manufacturer's protocol.
Background: A flow cytometer gives signals particle by particle.

The test system of data set [5] is MDA-MB-468 cells. In words: Mitochondrial membrane potential (MitoProbe JC-1). Format: cell-based, human. On the procedure:
Mitochondrial membrane potential. Measurements were performed using the MitoProbe™ JC-1 assay kit (M34152, Thermo Fischer Scientific) according to the manufacturer's protocol. In brief, cells were treated with 2 μM JC-1 or CCCP ([…]) control for the indicated time.

Data set [6] relates to MDA-MB-468 cells. As to the kind of experiment: Mitochondrial morphology. The class given is cell-based, human.
The subject of data set [7] is MDA-MB-468 cells. In words: Cell death (Annexin V-FITC/PI) with cell death inhibitors. The note with it: Z-VAD-FMK 50 μM, ferrostatin-1 10 μM, necrostatin-1 20 μM, 72 h; not rescued by ferrostatin-1 and necrostatin-1. Format: cell-based, human.
Method: Cell death. […] Data were analyzed by a LSRFortessaTM flow cytometer (BD Biosciences, San Jose, CA) and processed using Cell Quest (BD Biosciences) and FlowJo (FLOWJO, LLC) software.
Data set [8] has as its system MDA-MB-468 cells. As to the kind of experiment: EGF-induced epithelial-to-mesenchymal transition (E-cadherin/phalloidin imaging, Western blot of markers, CD44/CD24 flow cytometry). Format: cell-based, human. The settings on record: 72 h; E-cadherin, phalloidin, fibronectin, vimentin, Zeb1, Snail, Slug, CD44high/CD24low proportion. As to the method:
as §2
Western blotting. […] Extracts were incubated at 37° C. for 1 h.
as §4

Data set [9] can be described thus: Cyclic voltammetry of iron solutions.
The nature of data set [10]: Cyclic voltammetry of a copper(I) solution. The note with it: metformin 2 mol equiv, quasi-reversible couples.
Method: Cyclic voltammetry. Cyclic voltammetry experiments were performed with a three-electrode cell under argon. Saturated Calomel Electrode (SCE) was used as reference, a steady Glassy Carbon (GC) electrode of diameter 3 mm was selected as working electrode and a Platinum wire as counterelectrode. All cyclic voltammograms were recorded at RT with a μ-autolab III from Metrohm using Nova software with a scan rate of 0.5 V/s. MeCN was used as a degassed HPLC grade from Carlo Erba. Water was mQ H2O. Solutions with copper were prepared with 0.3 M nBu4NBF4 (180 mg) in MeCN (1.8 mL) and 200 μl of a 20 mM Cu(MeCN)4PF6 stock solution in MeCN (7.4 mg/mL).

pIC50: −log10 of the molar value. Where a name gives a salt, the structure may show the parent alone.

For the compound `CN(C)C(=N)NC(=N)N` [metformin, 1,1-Dimethylbiguanide hydrochloride], the pIC50 (in general, the negative decadic logarithm of the IC50, by convention in mol/L) in data set [1] (Homo sapiens, 1st of four values listed 'respectively') is 1.92; in [1] (Homo sapiens, 2nd of four values listed 'respectively'), 1.82; in data set [1] (Homo sapiens, 3rd of four values listed 'respectively'), 2.11; in [1] (Homo sapiens, 4th of four values listed 'respectively'), 1.96; in data set [2] (Homo sapiens, MDA-MB-468, 72 h, 1st of four values listed), 1.61; in data set [2] (Homo sapiens, MDA-MB-468, 72 h, 2nd of four values listed), 1.92. The pIC50 is 2.26 in [2] (Homo sapiens, MDA-MB-468, 72 h, 3rd of four values listed) and 2.64 in [2] (Homo sapiens, MDA-MB-468, 72 h, 4th of four values listed). In addition, in [3], the “mitochondrial levels of copper(II)” value is reported as “increased levels of copper(II)”. The “mitochondrial reactive oxygen species (ROS) levels” value in data set [4] is “increased levels of reactive oxygen species (ROS)”. Moreover, the mitochondrial membrane potential result in data set [5] is recorded as “reduction of mitochondrial membrane potentials”. For the same compound, the mitochondrial morphology result in [6] is on record as “alteration of mitochondrial morphology”. The “rescue of compound-induced cell death by inhibitors” value in [7] is on record as “rescued by the caspase 3 inhibitor Z-VAD-FMK”. Also, the “induction of EMT using EGF” value in data set [8] is recorded as “prevented”. Further, the “redox properties of iron (cyclic voltammetry)” value in data set [9] was “altered the redox properties of this metal”. For the same compound, the “redox properties of copper (cyclic voltammetry)” value in [10] is recorded as “altered the redox properties of copper”.

As to `C#CCCN(C)C(=N)NC(=N)N` [metforminyn], the pIC50 was 2.60 in data set [1] (1st of four values listed 'respectively'); 2.33 in [1] (2nd of four values listed 'respectively'); 2.55 in [1] (3rd of four values listed 'respectively'); 2.46 in data set [1] (4th of four values listed 'respectively'); 1.90 in data set [2] (72 h, 1st of four values listed); 2.28 in [2] (72 h, 2nd of four values listed). Moreover, the pIC50 was 3.10 in [2] (72 h, 3rd of four values listed) and 3.05 in [2] (72 h, 4th of four values listed). Also, the “mitochondrial levels of copper(II)” value in [3] is on record as “increased levels of copper(II)”. Also, in data set [4], the “mitochondrial reactive oxygen species (ROS) levels” value is recorded as “increased levels of reactive oxygen species (ROS)”. Also, the mitochondrial membrane potential result in [5] was “reduction of mitochondrial membrane potentials”. Also, the mitochondrial morphology result in [6] is reported as “alteration of mitochondrial morphology”. Also, the “rescue of compound-induced cell death by inhibitors” value in data set [7] is “rescued by the caspase 3 inhibitor Z-VAD-FMK”. Also, in [8], the “induction of EMT using EGF” value is “prevented”.
